Results taken from patent US20130303509A1, “NAMPT INHIBITORS” (AbbVie Inc., priority 2012, published 2013).

Tested on: PC3 cells
Test: NAMPT Cell Proliferation Assay
Format: cell-based
Conditions: Homo sapiens, PC-3, 120 h, 5 days incubation, cell viability by Cell Titer Glo
Procedure: NAMPT Cell Proliferation Assay
PC3 cells were seeded in 96-well black plates (Corning #3904) at 500 cells)Owell in 90 µl of RPMI media containing 10% heat-inactivated FBS and incubated overnight at 37° C. and 5% CO2 to allow cells to attach to wells. The following day, test compounds were serially diluted in neat DMSO to 1000× final concentrations prior to dilution with RPMI media to 10× and 1% DMSO. […] of the 10× compounds were then transferred to wells containing cells to produce a dose response of 10-fold dilutions from […] to 1×10^−[…]. Cells were incubated for 5 days at 37° C. and 5% CO2, then cell viability was measured using Cell Titer Glo reagent (Promega #G7571). Percent inhibition values were calculated and fitted to a sigmoidal dose response curves using Assay Explorer software to determine IC50s.

Row | IC50 [nM] | SMILES
1 | 6.56 | O=C(Nc1ccc(OC2CCN(C(=O)CC3CCOCC3)CC2)cc1)C1CN(c2cccnc2)C1 [Example 1, 1-(pyridin-3-yl)-N-(4-{[1-(tetrahydro-2H-pyran-4-ylacetyl)piperidin-4-yl]oxy}phenyl)azetidine-3-carboxamide]
2 | > 10000 | CC(C)(O)C(=O)N1CCC(c2ccc(NC(=O)C3CN(c4cccnc4C#N)C3)cc2)CC1 [Example 2, 1-(2-cyanopyridin-3-yl)-N-{4-[1-(2-hydroxy-2-methylpropanoyl)piperidin-4-yl]phenyl}azetidine-3-carboxamide]
3 | 70.8 | CC(C)(C)OC(=O)N1CCC(Oc2ccc(NC(=O)[C@H]3CCN(c4cccnc4)C3)cc2)CC1 [Example 8, tert-butyl 4-[4-({[(3S)-1-(pyridin-3-yl)pyrrolidin-3-yl]carbonyl}amino)phenoxy]piperidine-1-carboxylate]
4 | 739 | CC(C)(C)OC(=O)N1CCC(Oc2ccc(NC(=O)[C@@H]3CCN(c4cccnc4)C3)cc2)CC1 [Example 9, tert-butyl 4-[4-({[(3R)-1-(pyridin-3-yl)pyrrolidin-3-yl]carbonyl}amino)phenoxy]piperidine-1-carboxylate]
5 | 1.84 | O=C(Nc1ccc(C2CCN(C(=O)[C@@H]3CCCO3)CC2)cc1)C1CN(c2cccnc2)C1 [Example 10, 1-(pyridin-3-yl)-N-(4-{1-[(2S)-tetrahydrofuran-2-ylcarbonyl]piperidin-4-yl}phenyl)azetidine-3-carboxamide]
6 | 84.4 | CC(C)C(=O)N1CCC(Oc2ccc(NC(=O)[C@H]3CCN(c4cccnc4)C3)cc2)CC1 [Example 12, (3S)-N-(4-{[1-(2-methylpropanoyl)piperidin-4-yl]oxy}phenyl)-1-(pyridin-3-yl)pyrrolidine-3-carboxamide]
7 | 93.7 | CC(C)(O)C(=O)N1CCC(Oc2ccc(NC(=O)[C@H]3CCN(c4cccnc4)C3)cc2)CC1 [Example 17, (3S)-N-(4-{[1-(2-hydroxy-2-methylpropanoyl)piperidin-4-yl]oxy}phenyl)-1-(pyridin-3-yl)pyrrolidine-3-carboxamide]
8 | 56.4 | CC[C@H](C)C(=O)N1CCC(Oc2ccc(NC(=O)[C@H]3CCN(c4cccnc4)C3)cc2)CC1 [Example 19, (3S)-N-[4-({1-[(2S)-2-methylbutanoyl]piperidin-4-yl}oxy)phenyl]-1-(pyridin-3-yl)pyrrolidine-3-carboxamide]
9 | 0.28 | CC(C)(O)C(=O)N1CCC(c2ccc(NC(=O)C3CN(c4cccnc4)C3)cc2)CC1 [Example 20, N-{4-[1-(2-hydroxy-2-methylpropanoyl)piperidin-4-yl]phenyl}-1-(pyridin-3-yl)azetidine-3-carboxamide]
10 | 1.25 | CC[C@H](C)C(=O)N1CCC(c2ccc(NC(=O)C3CN(c4cccnc4)C3)cc2)CC1 [Example 22, N-(4-{1-[(2S)-2-methylbutanoyl]piperidin-4-yl}phenyl)-1-(pyridin-3-yl)azetidine-3-carboxamide]
11 | 72.5 | CC[C@H](C)C(=O)N1CCC(Oc2ccc(C(=O)NC3CN(c4cccnc4)C3)cc2)CC1 [Example 23, 4-({1-[(2S)-2-methylbutanoyl]piperidin-4-yl}oxy)-N-[1-(pyridin-3-yl)azetidin-3-yl]benzamide]

Further lines, the compound ahead of its results:

Row | SMILES | IC50 [nM]
12 | O=C(Nc1ccc(OC2CCN(C(=O)CC3CCOCC3)CC2)cc1)C1CN(c2cccnc2C(F)(F)F)C1 [Example 3, N-(4-{[1-(tetrahydro-2H-pyran-4-ylacetyl)piperidin-4-yl]oxy}phenyl)-1-[2-(trifluoromethyl)pyridin-3-yl]azetidine-3-carboxamide] | 7330
13 | Cc1ncccc1N1CC(C(=O)Nc2ccc(OC3CCN(C(=O)CC4CCOCC4)CC3)cc2)C1 [Example 4, 1-(2-methylpyridin-3-yl)-N-(4-{[1-(tetrahydro-2H-pyran-4-ylacetyl)piperidin-4-yl]oxy}phenyl)azetidine-3-carboxamide] | 112
14 | Cc1ccncc1N1CC(C(=O)Nc2ccc(OC3CCN(C(=O)CC4CCOCC4)CC3)cc2)C1 [Example 5, 1-(4-methylpyridin-3-yl)-N-(4-{[1-(tetrahydro-2H-pyran-4-ylacetyl)piperidin-4-yl]oxy}phenyl)azetidine-3-carboxamide] | 6.75
15 | O=C(Nc1ccc(OC2CCN(C(=O)CC3CCOCC3)CC2)cc1)C1CN(c2cnccc2F)C1 [Example 6, 1-(4-fluoropyridin-3-yl)-N-(4-{[1-(tetrahydro-2H-pyran-4-ylacetyl)piperidin-4-yl]oxy}phenyl)azetidine-3-carboxamide] | 67.7
16 | O=C(Nc1ccc(OC2CCN(C(=O)CC3CCOCC3)CC2)cc1)C1CN(c2cnccc2C(F)(F)F)C1 [Example 7, N-(4-{[1-(tetrahydro-2H-pyran-4-ylacetyl)piperidin-4-yl]oxy}phenyl)-1-[4-(trifluoromethyl)pyridin-3-yl]azetidine-3-carboxamide] | 876
17 | O=C(Nc1ccc(OC2CCN(C(=O)CC3CCOCC3)CC2)cc1)[C@H]1CCN(c2cccnc2)C1 [Example 11, (3S)-1-(pyridin-3-yl)-N-(4-{[1-(tetrahydro-2H-pyran-4-ylacetyl)piperidin-4-yl]oxy}phenyl)pyrrolidine-3-carboxamide] | 22.7
18 | O=C(Nc1ccc(OC2CCN(C(=O)[C@@H]3CCCO3)CC2)cc1)[C@H]1CCN(c2cccnc2)C1 [Example 13, (3S)-1-(pyridin-3-yl)-N-[4-({1-[(2S)-tetrahydrofuran-2-ylcarbonyl]piperidin-4-yl}oxy)phenyl]pyrrolidine-3-carboxamide] | 79.1
19 | O=C(Nc1ccc(OC2CCN(C(=O)[C@H]3CCCO3)CC2)cc1)[C@H]1CCN(c2cccnc2)C1 [Example 14, (3S)-1-(pyridin-3-yl)-N-[4-({1-[(2R)-tetrahydrofuran-2-ylcarbonyl]piperidin-4-yl}oxy)phenyl]pyrrolidine-3-carboxamide] | 54.8
20 | O=C(Nc1ccc(OC2CCN(C(=O)C3CCOC3)CC2)cc1)[C@H]1CCN(c2cccnc2)C1 (stereo partly drawn) [Example 15, (3S)-1-(pyridin-3-yl)-N-(4-{[1-(tetrahydrofuran-3-ylcarbonyl)piperidin-4-yl]oxy}phenyl)pyrrolidine-3-carboxamide] | 34.7
21 | O=C(Nc1ccc(OC2CCN(C(=O)CC3CC3)CC2)cc1)[C@H]1CCN(c2cccnc2)C1 [Example 16, (3S)-N-(4-{[1-(cyclopropylacetyl)piperidin-4-yl]oxy}phenyl)-1-(pyridin-3-yl)pyrrolidine-3-carboxamide] | 92.6
22 | O=C(Nc1ccc(OC2CCN(C(=O)CC(F)(F)F)CC2)cc1)[C@H]1CCN(c2cccnc2)C1 [Example 18, (3S)-1-(pyridin-3-yl)-N-(4-{[1-(3,3,3-trifluoropropanoyl)piperidin-4-yl]oxy}phenyl)pyrrolidine-3-carboxamide] | 148
23 | O=C(NC1CN(c2cccnc2)C1)c1ccc(OC2CCN(C(=O)CC3CCOCC3)CC2)cc1 [Example 21, N-[1-(pyridin-3-yl)azetidin-3-yl]-4-{[1-(tetrahydro-2H-pyran-4-ylacetyl)piperidin-4-yl]oxy}benzamide] | 150
24 | CC(C)(O)C(=O)N1CCC(Oc2ccc(C(=O)NC3CN(c4cccnc4)C3)cc2)CC1 [Example 24, 4-{[1-(2-hydroxy-2-methylpropanoyl)piperidin-4-yl]oxy}-N-[1-(pyridin-3-yl)azetidin-3-yl]benzamide] | 169
